Consider three compounds from US8043422B2, “Combinations of phenylpyrroles and pyrion compounds” (Janssen Pharmaceutica, NV, priority 2008, dated 2011).

Like-named read-outs stand apart in the source and are kept apart here.

Holding throughout (type): cell-based
Assay [1] deals with Staphylococcus aureus (g+) LMG 8064. As to the kind of experiment: Poison Plate Assay, bacteria. As to conditions: for MIC: LMG8064, 120 h, read-out: MIC-values (minimum inhibitory concentration) in ppm; for MIC-values (minimum inhibitory concentration) in ppm: fludioxonil (I-a) with sodium pyrithione (II-h). On the procedure: (§1) • Test models: • Fungi: to each well of a 24-well microtiter plate, 1000 μl of a rich (Potato Dextrose Agar, PDA: 4 g potato infusion, 20 g bacto dextrose and 15 g bacto agar in 1 liter deionised water) or poor (Glucose Agar, GA: 10 g glucose, 1.5 g K2HPO4, 2 g KH2PO4, 1 g (NH4)2SO4, 0.5 g MgSO4 and 12.5 g agar in 1 liter deionised water) medium containing the appropriate combination of the test compounds in one of the concentrations of a dose series is added. The nutrient medium is inoculated with the test fungi by adding a spore/mycelium suspension (10 μl) or a small piece of agar from the margin of an actively growing colony and incubated under dark at 27° C. with 70% relative humidity. The growth of the fungi is evaluated after two weeks. • Glucose agar was used in some experiments instead of PDA (Potato Dextrose Agar), as an alternative, poorer medium for the fungi, in order to increase the chances of detecting activity in compounds like fludioxonil, whose mode of action could be partly circumvented by fungi on a richer medium (Copping, L. and Hewitt, G. (1998) “Chemistry and mode of action of crop protection agents.” The Royal Society of Chemistry, Cambridge. 145 pp.). • Bacteria: to each well of a 24-well microtiter plate, 1000 μL Tryptose Agar (TA, 20 g bacto tryptose agar, 5 g sodium chloride, 1 g bacto dextrose and 15 g agar in 1 liter deionised water), containing the test compounds in one of the concentrations of a dose series is added. The nutrient medium is inoculated by adding 10 μl of an actively growing liquid culture of the test bacteria in tryptose broth (without agar), and incubated under dark at 27° C. with 70% relative humidity. Growth is evaluated after five days. • Concentrations: • MIC values for single compounds were collected from previous screening experiments. These MIC values were used as a guide in determining of the most suitable test dose ranges. • Synergy experiment with bispyrithione: • 25.00-18.75-14.06-10.55-7.91-5.93-4.45-3.34-2.50-1.88-1.41-1.06 ppm • Synergy experiment with sodium pyrithione: • 10.00-7.50-5.63-4.22-3.16-2.37-1.78-1.33-1.00-0.75-0.56-0.42 ppm Test combinations:
(§2) (2000) “Measuring synergy” cosmetics & Toiletries 115(11): 59-62; and Lada, A., A. N. Petrocci, H. A. Green, and J. J. Merianos (1977) “Antimicrobial composition” U.S. Pat. No. 4,061,750, 3 pp.):
(§3) [formula] wherein: • QA is the concentration of compound A in ppm, acting alone, which produced an end point (e.g. MIC), • Qa is the concentration of compound A in ppm, in the mixture, which produced an end point (e.g. MIC), • QB is the concentration of compound B in ppm, acting alone, which produced an end point (e.g. MIC), • Qb is the concentration of compound B in ppm, in the mixture, which produced an end point (e.g. MIC). […]

Assay [2] concerns Coriolus versicolor CTB863A. As to the kind of experiment: Poison Plate Assay, fungi. As to conditions: Trametes versicolor, 336 h, read-out: MIC-values (minimum inhibitory concentration) in ppm. On the procedure:
as §1, §2, §3

Assay [3] concerns Ulocladium atrum IMI214699a. As to the kind of experiment: Poison Plate Assay, fungi. On the procedure: as §1, §2, §3
The mark [4] stands for this setting: ppm total active ingredient, Tryptose Agar, 27° C., growth evaluated after five days.

`[O-][n+]1ccccc1SSc1cccc[n+]1[O-]` [pyrion disulfide (II-g), pyrion disulfide]: the MIC in assay [1] (fludioxonil (I-a) with pyrion disulfide (II-g), ppm total active ingredient, Tryptose Agar, 27° C., growth evaluated after five days) was determined as 4.45 µg/mL; in assay [2] (Coriolus versicolor, fludioxonil (I-a) with pyrion disulfide (II-g), ppm total active ingredient, 27° C., growth evaluated after two weeks), 18.8 µg/mL.

Take `N#Cc1c[nH]cc1-c1cccc2c1OC(F)(F)O2` [fludioxonil (I-a), 4-(2,2-difluoro-1,3-benzodioxol-4-yl)-1H-pyrrole-3-carbonitrile]: the MIC in assay [1] turned out to be 40 µg/mL; in assay [2], 40 µg/mL; in assay [3] (Alternaria atra, IMI214699A, 336 h, read-out: MIC-values (minimum inhibitory concentration) in ppm), 100 µg/mL. Further, the “MIC-values (minimum inhibitory concentration) in ppm” value in assay [1] (setting [4]) is 40.00 ppm.

Take `[Na+].[O-][n+]1ccccc1[S-]` [sodium pyrithione (II-h), sodium pyrithione]: the “MIC-values (minimum inhibitory concentration) in ppm” value in assay [1] (setting [4]) is recorded as 4.22 ppm; in assay [3] (Ulocladium atrum, fludioxonil (I-a) with sodium pyrithione (II-h), ppm total active ingredient, 27° C., growth evaluated after two weeks), 2.37 ppm.
